Results: PMC4506530, “Small-Molecule Inhibitors That Target Protein–Protein Interactions in the RAD51 Family of Recombinases” (Chemmedchem, 2014)
Read-outs that look alike come from different tables or passages of the source.

Molecular target: HumRADA2 (Pyrococcus furiosus, UniProt O74036, D220A/DEL288-314/E219S/I169M/K221M/V202Y/Y201A)
Test: Isothermal titration calorimetry (ITC), direct binding to HumRADA2
Details: for LLE: LLE=pKD−clog P, clog P calculated with Instant JChem (ChemAxon); for KD: ITC, substituted tryptamine sulfonamide series (Table 2), error from fitting a single-site binding model; for -TDS / DG / DH: ITC thermodynamic binding profile, Table S1
Source text: We previously published fragment-screening results using a humanised RAD51 surrogate from Pyrococcus furiosus, which we refer to as HumRADA2 (previously referred to as MAYSAM RadA).[23] In this surrogate protein, the N-terminal domain with the oligomerisation sequence was removed to monomerise the protein and expose the FxxA binding site for screening, and six surface residues were mutated around the Phe pocket in order to humanise the protein in this region.
Supplemental Experimental Procedures
C-terminal ATPase domain of P. furiosus RadA (residues 108–349, with deletion of the “L2” loop residues 288–314) was expressed in E.coli and purified as described before using ion-exchange ad size exclusion chromatographies.[1] Purified protein was concentrated to 0.5 mM, flash frozen in liquid nitrogen and stored at -80C. Protein concentration was determined by measuring absorbance at 280 nm in 6M GndHCl and using calculated absorption coefficient […]
Isothermal Titration Calorimetry
ITC experiments were performed at 25°C on a MicroCal ITC-200 (GE Healthcare).
HumRadA2 (humanized RadA) (600 µM in 20 mM MES pH 6.0 with 100 mM NaCl and 0.5 mM EDTA was diluted with Tris buffer (200 mM, pH 7.5 with 100 mM NaCl), and DMSO was added to match to the ligand solution. In titrations with ATP, 5 mM MgCl2 was included in the ligand buffer and the protein buffer. Compounds in DMSO were diluted into the same Tris buffer to give a final concentration of 0.6–10 mM ligand in 10% DMSO and Tris buffer. Care was taken to ensure that the DMSO concentrations in the protein and ligand solutions were well matched so as to avoid artefacts arising from heats of dilution of DMSO. In a typical experiment, protein (60 µM) was loaded in the sample cell, and 16 injections (2.4 µL) of 4.8 s duration were made at 80 s intervals from a syringe loaded with ligand (0.6–10 mM) and rotating at 1000 rpm. In all titrations, an initial injection of ligand (0.4 µL) was made and discarded during data analysis. Control titrations of ligand to buffer were performed and […]
The thermodynamic parameters were obtained by fitting the data to a single-site-binding model by using Origin software and fixing the stoichiometry as 1.0 for […]

[1] = tryptophan ester series (Table 1)
[2] = substituted tryptamine series (Table 2)

Structure (SMILES) | Kd [µM] | LLE [1] | LE (ligand efficiency) [1] [kcal mol−1 per heavy atom] | LLE [2] | LE (ligand efficiency) [2] [kcal mol−1 per heavy atom] | also measured
Cl.N[C@@H](Cc1c[nH]c2ccccc12)C(=O)OCCc1ccccc1F [5 f] | 25 ± 5 | 1.1 | 0.26 | – | – | –
O=S(=O)(NCCc1c[nH]c2ccccc12)c1cccs1 [7 j] | 16 ± 6 | – | – | 1.9 | 0.33 | –
Cl.N[C@@H](Cc1c[nH]c2ccccc12)C(=O)Oc1ccccc1 [5 a] | 190 ± 5 | 0.7 | 0.24 | – | – | –
O=S(=O)(Cc1ccccc1)NCCc1c[nH]c2ccccc12 [7 b] | > 200 | – | – | – | – | KD: No activity was detectable
O=S(=O)(NCCc1c[nH]c2ccccc12)c1ccc(Cl)s1 [7 l] | 13 ± 1 | – | – | 1.3 | 0.32 | –
N[C@@H](Cc1c[nH]c2ccccc12)C(=O)OCCc1ccc(Br)cc1 [5 l] | > 200 | – | – | – | – | –
CC(=O)N[C@@H](Cc1c[nH]c2ccccc12)C(=O)OCCc1ccccc1F [6 b] | 18 ± 1 | 1.5 | 0.25 | – | – | –
Nc1ncnc2c1ncn2[C@@H]1O[C@H](COP(=O)(O)OP(=O)(O)OP(=O)(O)O)[C@@H](O)[C@H]1O [ATP, reference compound] | – | – | – | – | – | Kd (ITC against apo protein, in the absence of 5 c, read-out: KD): 2.5 µM
Cl.N[C@@H](Cc1c[nH]c2ccccc12)C(=O)OCCc1c[nH]c2ccccc12 [5 n] | 35 ± 9 | 1.0 | 0.23 | – | – | –
O=[N+]([O-])c1cccc(S(=O)(=O)NCCc2c[nH]c3ccccc23)c1 [7 e] | 18 ± 4 | – | – | 1.9 | 0.27 | –
N[C@@H](Cc1c[nH]c2ccccc12)C(=O)NCCc1ccccc1 [5 e] | > 200 | – | – | – | – | –
O=S(=O)(NCCc1c[nH]c2ccccc12)c1cc(Br)c(Br)s1 [7 o] | 67 ± 29 | – | – | −0.4 | 0.27 | –
O=S(=O)(NCCc1c[nH]c2ccccc12)c1c(Cl)sc(Cl)c1Br [7 n] | 2.3 ± 0.4 | – | – | 0.6 | 0.33 | –
Cl.N[C@@H](Cc1c[nH]c2ccccc12)C(=O)OCCCc1ccccc1 [5 d] | 160 ± 7 | 0.02 | 0.22 | – | – | –
Cl.N[C@@H](Cc1c[nH]c2ccccc12)C(=O)OCc1ccccc1 [5 b] | 200 ± 8 | 0.7 | 0.23 | – | – | –
O=S(=O)(NCCc1c[nH]c2ccccc12)c1ccc(Br)s1 [7 k] | 10 ± 1 | – | – | 1.2 | 0.32 | –
Cc1noc(C)c1S(=O)(=O)NCCc1c[nH]c2ccccc12 [7 q] | 110 ± 12 | – | – | 2.4 | 0.25 | –
CS(=O)(=O)NCCc1c[nH]c2ccccc12 [7 i] | > 200 | – | – | – | – | KD: No activity was detectable
CNC(=O)C(N)Cc1c[nH]c2ccccc12 (centres unmarked) [compound 2] | 1500 ± 24 | 2.2 | 0.24 | – | – | -TDS: 1.3 kcal/mol; DG: -3.8 kcal/mol; DH: -5.1 kcal/mol
Cc1ccccc1CCOC(=O)[C@@H](N)Cc1c[nH]c2ccccc12.Cl [5 h] | 30 ± 9 | 0.7 | 0.26 | – | – | –

Structure (SMILES) | Kd [µM] | LLE [1] | LE (ligand efficiency) [1] [kcal mol−1 per heavy atom] | LLE [2] | LE (ligand efficiency) [2] [kcal mol−1 per heavy atom] | also measured
Cc1ccc(CCOC(=O)C(N)Cc2c[nH]c3ccccc23)cc1 (centres unmarked) [5 j] | 22 ± 4 | 0.8 | 0.26 | – | – | –
O=S(=O)(NCCc1c[nH]c2ccccc12)c1cc2ccccc2s1 [7 p] | 1.6 ± 0.6 | – | – | 1.8 | 0.33 | –
COc1ccc(CCOC(=O)[C@@H](N)Cc2c[nH]c3ccccc23)cc1 [5 k] | > 200 | – | – | – | – | –
O=C(N[C@@H](Cc1c[nH]c2ccccc12)C(=O)OCCc1ccccc1)c1cccc([N+](=O)[O-])c1 [6 c] | > 200 | – | – | – | – | –
O=C(NC(Cc1c[nH]c2ccccc12)C(=O)OCCc1ccccc1)C1CCCCC1 (centres unmarked) [6 d] | > 200 | – | – | – | – | –
COC(=O)C(Cc1c[nH]c2ccccc12)NC(C)=O (centres unmarked) [compound 3] | 810 ± 19 | 2.0 | 0.22 | – | – | -TDS: 0.9 kcal/mol; DG: -4.2 kcal/mol; DH: -5.1 kcal/mol
CNC(=O)C(Cc1c[nH]c2ccccc12)NC(C)=O (centres unmarked) [compound 4] | 890 ± 15 | 2.6 | 0.22 | – | – | -TDS: 1.6 kcal/mol; DG: -4.2 kcal/mol; DH: -5.8 kcal/mol
Cl.N[C@@H](Cc1c[nH]c2ccccc12)C(=O)OCCc1ccccc1O [5 g] | 27 ± 12 | 1.5 | 0.26 | – | – | –
Cc1cccc(CCOC(=O)[C@@H](N)Cc2c[nH]c3ccccc23)c1.Cl [5 i] | 30 ± 7 | 0.7 | 0.26 | – | – | –
COc1ccc(S(=O)(=O)NCCc2c[nH]c3ccccc23)cc1 [7 g] | 120 ± 10 | – | – | 1.2 | 0.23 | –
Cn1cnc(S(=O)(=O)NCCc2c[nH]c3ccccc23)c1 [7 s] | 420 ± 74 | – | – | 1.8 | 0.22 | –
O=S(=O)(NCCc1c[nH]c2ccccc12)c1ccco1 [7 r] | 18 ± 2 | – | – | 2.6 | 0.32 | –
O=C(CCc1ccccc1)N[C@@H](Cc1c[nH]c2ccccc12)C(=O)OCCc1ccccc1 [6 e] | > 200 | – | – | – | – | –
Nc1cccc(S(=O)(=O)NCCc2c[nH]c3ccccc23)c1 [7 f] | 31 ± 6 | – | – | 2.4 | 0.28 | –
O=S(=O)(NCCc1c[nH]c2ccccc12)c1ccccc1Br [7 d] | 3.1 ± 0.1 | – | – | 1.8 | 0.34 | –
O=S(=O)(NCCc1c[nH]c2ccccc12)c1ccccc1 [7 a] | 28 ± 6 | – | – | 1.6 | 0.30 | –
Cl.N[C@@H](Cc1c[nH]c2ccccc12)C(=O)OCCC1CCCCC1 [5 m] | 28 ± 9 | 0.8 | 0.27 | – | – | –
O=C(NC(Cc1c[nH]c2ccccc12)C(=O)OCCc1ccccc1)c1ccccc1 (centres unmarked) [6 a] | 3 ± 1 | 0.5 | 0.24 | – | – | -TDS: -4.2 kcal/mol; DG: -7.6 kcal/mol; DH: -3.4 kcal/mol
O=S(=O)(NCCc1c[nH]c2ccccc12)c1ccc(Br)cc1 [7 c] | 92 ± 22 | – | – | 0.4 | 0.25 | –
